SMILES strings stand for the structures. Some results are limits rather than exact numbers.

Test [1] deals with BTK (Homo sapiens, UniProt Q06187). Kind of test: BTK cell degradation in TMD-8 cells, HTRF assay. Type of test: cell-based. The arrangement: endogenous in cells; host or cells: TMD-8 cells. The note with it: 6 h treatment, IC50 (DC50) of BTK degradation. In a few lines: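 BTK levels read by HTRF in lysates of TMD-8 cells exposed to compounds for 6 h, eight concentrations at 6-fold steps in 0.2% DMSO. Percent degradation versus DMSO and low controls was fitted with a four-parameter equation to give DC50; Dmax is maximal degradation.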
A general note: Time-resolved FRET reads energy transfer from a long-lived donor to a nearby acceptor.

For test [2], the system named is HEK-293 cells. Put plainly: HEK-293 cytotoxicity detection (CellTiter-Glo). The test is classed as cell-based. The note with it: Homo sapiens, 72 h, 72 h incubation, CellTiter-Glo luminescence, read-out: HEK293. In a few lines:
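HEK-293 cells exposed 72 h to 8 compounds doses (4-fold dilutions, top stock 5 mM at 500×) in 0.2% DMSO. Viability by CellTiter-Glo luminescence; inhibition normalised to DMSO high control and low control, IC50 from four-parameter curve fit.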
On the technique in general: Cellular ATP, detected with luciferase, serves as a proxy for viable cell number.

Sequence of BTK (Q06187 whole entry): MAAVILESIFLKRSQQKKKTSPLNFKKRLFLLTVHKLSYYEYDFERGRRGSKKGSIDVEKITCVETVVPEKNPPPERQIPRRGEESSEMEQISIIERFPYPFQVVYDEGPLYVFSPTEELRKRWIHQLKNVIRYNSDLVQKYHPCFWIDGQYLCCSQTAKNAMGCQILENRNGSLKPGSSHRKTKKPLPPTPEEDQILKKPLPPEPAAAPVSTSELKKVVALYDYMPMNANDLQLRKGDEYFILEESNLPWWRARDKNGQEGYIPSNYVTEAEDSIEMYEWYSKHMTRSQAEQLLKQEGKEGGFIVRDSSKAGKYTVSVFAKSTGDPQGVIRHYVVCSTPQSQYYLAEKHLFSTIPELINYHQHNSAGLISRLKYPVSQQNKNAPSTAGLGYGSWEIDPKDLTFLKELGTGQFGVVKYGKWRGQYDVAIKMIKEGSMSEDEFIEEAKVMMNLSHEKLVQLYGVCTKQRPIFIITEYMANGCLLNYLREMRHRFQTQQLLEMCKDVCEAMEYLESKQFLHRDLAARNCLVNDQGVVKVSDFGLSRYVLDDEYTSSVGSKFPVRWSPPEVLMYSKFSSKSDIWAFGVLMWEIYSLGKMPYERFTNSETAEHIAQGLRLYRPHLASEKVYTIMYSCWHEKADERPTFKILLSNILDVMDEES

For `Cc1c(C(=O)Nc2cscn2)ccc(-c2nn3c(c2C(N)=O)Nc2ccc(N4CCN(CC5CCN(c6ccc(CN7CCC(=O)NC7=O)cc6)CC5)CC4)cc2CC3)c1F` [Example B98, 7-(4-((1-(4-((2,4-dioxotetrahydropyrimidin-1(2H)-yl)methyl)phenyl)piperidin-4-yl)methyl)piperazin-1-yl)-2-(2-fluoro-3-methyl-4-(thiazol-4-ylcarbamoyl)phenyl)-9,10-dihydro-4H-benzo[d]pyrazolo[1,5-a][1,3]diazepine-3-carboxamide], the DC50 (in general, the midpoint of the concentration-degradation curve) in test [1] turned out to be 1.1 nM. The IC50 in test [2] is over 10000 nM.
The matching figures for `Cc1c(C(=O)Nc2cscn2)ccc(-c2nn3c(c2C(N)=O)Nc2ccc(N4CCN(CC5CCN(c6cccc(CN7CCC(=O)NC7=O)c6)CC5)CC4)cc2CC3)c1F` [Example B99, 7-(4-((1-(3-((2,4-dioxotetrahydropyrimidin-1(2H)-yl)methyl)phenyl)piperidin-4-yl)methyl)piperazin-1-yl)-2-(2-fluoro-3-methyl-4-(thiazol-4-ylcarbamoyl)phenyl)-9,10-dihydro-4H-benzo[d]pyrazolo[1,5-a][1,3]diazepine-3-carboxamide]: 2.72 nM and over 10000 nM.
Taken in the same sequence, the figures for `Cc1c(C(=O)Nc2cscn2)ccc(-c2nn3c(c2C(N)=O)Nc2ccc(N4CCN(C5CC(c6ccc(N[C@@H]7CCC(=O)NC7=O)cc6)C5)CC4)cc2CC3)c1F` (stereo partly drawn) [Example B100, (R)-7-(4-(3-(4-((2,6-dioxopiperidin-3-yl)amino)phenyl)cyclobutyl)piperazin-1-yl)-2-(2-fluoro-3-methyl-4-(thiazol-4-ylcarbamoyl)phenyl)-9,10-dihydro-4H-benzo[d]pyrazolo[1,5-a][1,3]diazepine-3-carboxamide] were 2.14 nM and 34.1 nM.
In the case of `Cc1c(C(=O)Nc2cscn2)ccc(-c2nn3c(c2C(N)=O)Nc2ccc(N4CCN(C5CC(c6ccc(N[C@H]7CCC(=O)NC7=O)cc6)C5)CC4)cc2CC3)c1F` (stereo partly drawn) [Example B101, (S)-7-(4-(3-(4-((2,6-dioxopiperidin-3-yl)amino)phenyl)cyclobutyl)piperazin-1-yl)-2-(2-fluoro-3-methyl-4-(thiazol-4-ylcarbamoyl)phenyl)-9,10-dihydro-4H-benzo[d]pyrazolo[1,5-a][1,3]diazepine-3-carboxamide], in test [1], the DC50 was 2.42 nM. Besides, the IC50 in test [2] worked out at 32.3 nM.
Regarding `Cc1c(C(=O)Nc2cscn2)ccc(-c2nn3c(c2C(N)=O)Nc2ccc(N4CCN(C(=O)C5CCN(c6ccc(N7CCC(=O)NC7=O)cc6)CC5)CC4)cc2CC3)c1F` [Example B102, 7-(4-(1-(4-(2,4-dioxotetrahydropyrimidin-1(2H)-yl)phenyl)piperidine-4-carbonyl)piperazin-1-yl)-2-(2-fluoro-3-methyl-4-(thiazol-4-ylcarbamoyl)phenyl)-9,10-dihydro-4H-benzo[d]pyrazolo[1,5-a][1,3]diazepine-3-carboxamide], half-maximal degradation in test [1] (DC50) was put at 1.1 nM. Further, the IC50 in test [2] was over 10000 nM.
In turn, `Cc1c(C(=O)Nc2cscn2)ccc(-c2nn3c(c2C(N)=O)Nc2ccc(N4CCN(C[C@H]5CCN(c6ccc(N7CCC(=O)NC7=O)cc6)C5)CC4)cc2CC3)c1F` [Example B103, (R)-7-(4-((1-(4-(2,4-dioxotetrahydropyrimidin-1(2H)-yl)phenyl)pyrrolidin-3-yl)methyl)piperazin-1-yl)-2-(2-fluoro-3-methyl-4-(thiazol-4-ylcarbamoyl)phenyl)-9,10-dihydro-4H-benzo[d]pyrazolo[1,5-a][1,3]diazepine-3-carboxamide] gave a DC50 in test [1] of 3.3 nM. The IC50 in test [2] is over 10000 nM.
The matching figures for `COc1ccccc1C(=O)NCc1ccc(-c2nn3c(c2C(N)=O)Nc2ccc(N4CCN(CC5CCN(c6ccc(N7CCC(=O)NC7=O)cc6)CC5)CC4)cc2CC3)cc1` [Example C1, 7-(4-((1-(4-(2,4-dioxotetrahydropyrimidin-1(2H)-yl)phenyl)piperidin-4-yl)methyl)piperazin-1-yl)-2-(4-((2-methoxybenzamido)methyl)phenyl)-9,10-dihydro-4H-benzo[d]pyrazolo[1,5-a][1,3]diazepine-3-carboxamide]: 0.758 nM and over 10000 nM.
The matching figures for `COc1ccc(C)cc1C(=O)NCc1ccc(-c2nn3c(c2C(N)=O)Nc2ccc(N4CCN(CC5CCN(c6ccc(N7CCC(=O)NC7=O)cc6)CC5)CC4)cc2CC3)cc1` [Example C2, 7-(4-((1-(4-(2,4-dioxotetrahydropyrimidin-1(2H)-yl)phenyl)piperidin-4-yl)methyl)piperazin-1-yl)-2-(4-((2-methoxy-5-methylbenzamido)methyl)phenyl)-9,10-dihydro-4H-benzo[d]pyrazolo[1,5-a][1,3]diazepine-3-carboxamide]: 0.52 nM and over 10000 nM.
As to `COc1ccc(F)cc1C(=O)NCc1ccc(-c2nn3c(c2C(N)=O)Nc2ccc(N4CCN(CC5CCN(c6ccc(N7CCC(=O)NC7=O)cc6)CC5)CC4)cc2CC3)cc1` [Example C3, 7-(4-((1-(4-(2,4-dioxotetrahydropyrimidin-1(2H)-yl)phenyl)piperidin-4-yl)methyl)piperazin-1-yl)-2-(4-((5-fluoro-2-methoxybenzamido)methyl)phenyl)-9,10-dihydro-4H-benzo[d]pyrazolo[1,5-a][1,3]diazepine-3-carboxamide], half-maximal degradation in test [1] (DC50) was put at 0.343 nM. The IC50 in test [2] was over 10000 nM.
In test [1], `COc1ccc2ccccc2c1C(=O)NCc1ccc(-c2nn3c(c2C(N)=O)Nc2ccc(N4CCN(CC5CCN(c6ccc(N7CCC(=O)NC7=O)cc6)CC5)CC4)cc2CC3)cc1` [Example C4, 7-(4-((1-(4-(2,4-dioxotetrahydropyrimidin-1(2H)-yl)phenyl)piperidin-4-yl)methyl)piperazin-1-yl)-2-(4-((2-methoxy-1-naphthamido)methyl)phenyl)-9,10-dihydro-4H-benzo[d]pyrazolo[1,5-a][1,3]diazepine-3-carboxamide] came in with a DC50 of 0.282 nM. The IC50 in test [2] is over 10000 nM.
With `COc1ccccc1C(=O)NC(C)c1ccc(-c2nn3c(c2C(N)=O)Nc2ccc(N4CCN(CC5CCN(c6ccc(N7CCC(=O)NC7=O)cc6)CC5)CC4)cc2CC3)cc1` (stereo not drawn) [Example C5, 7-(4-((1-(4-(2,4-dioxotetrahydropyrimidin-1(2H)-yl)phenyl)piperidin-4-yl)methyl)piperazin-1-yl)-2-(4-(1-(2-methoxybenzamido)ethyl)phenyl)-9,10-dihydro-4H-benzo[d]pyrazolo[1,5-a][1,3]diazepine-3-carboxamide], half-maximal degradation in test [1] (DC50) was put at 3.82 nM. The IC50 in test [2] is over 10000 nM.
The matching figures for `COc1ccc(Cl)cc1C(=O)NCc1ccc(-c2nn3c(c2C(N)=O)Nc2ccc(N4CCN(CC5CCN(c6ccc(N7CCC(=O)NC7=O)cc6)CC5)CC4)cc2CC3)cc1C` [Example C6, 2-(4-((5-chloro-2-methoxybenzamido)methyl)-3-methylphenyl)-7-(4-((1-(4-(2,4-dioxotetrahydropyrimidin-1(2H)-yl)phenyl)piperidin-4-yl)methyl)piperazin-1-yl)-9,10-dihydro-4H-benzo[d]pyrazolo[1,5-a][1,3]diazepine-3-carboxamide]: 3.4 nM and over 10000 nM.

The values above are taken from US20240246977A1, “DEGRADATION OF BRUTON'S TYROSINE KINASE (BTK) BY CONJUGATION OF BTK INHIBITORS WITH E3 LIGASE LIGAND AND METHOD OF USE” (BeiGene Switzerland GmbH, priority 2021, published 2024).
